Data set [1] is described as follows: Plasma pharmacokinetics of RPM constituents after oral RPM extract. Conditions: for plasma concentrations: RPM extract 6, 18 and 36 g/kg p.o.; for time at which C max was exhibited: RPM extract p.o.
From the text: For the pharmacokinetic (PK) study, three groups (n = 6 each) of rats were orally administered RPM extract (6, 18, and 36 g/kg). In the plasma pharmacokinetics experiment, doses were 6, 18, and 36 g/kg for the single administration group and 18 g/kg for the continuous administration group. The doses were set at a subtoxic level ([Zhang et al., 2013]; [Wang et al., 2015]) to investigate the pharmacokinetic profiles of the constituents of RPM (36 g/kg group) and were approximately 60 times the upper dose (6 g/day) for humans recommended by the 2020 edition of Chinese Pharmacopoeia ([Chinese Pharmacopoeia Commission, 2020]), which was converted to a dose for rats based on body surface area conversion ([Reagan-Shaw et al., 2008]). In addition, the low and medium doses decreased in a certain proportion. Serial blood samples (∼120 μL; before dosing and at 5, 15, and 30 min, and 1, 2, 4, 6, 8, 12, and 24 h after administration) were collected in heparinized tubes from the orbital sinus under light isoflurane. The blood samples were centrifuged at 12000 g for 2 min, and the plasma fractions were decanted and frozen at −70°C until analysis.
Samples were prepared using the protein precipitation process. Rat plasma (50 μL) spiked with 10 μL of IS (puerarin 100 ng/ml) was extracted with 150 μL acetonitrile. After vortex shaking for 5 min and centrifugation at 14,000 g for 5 min, 150 μL of the organic layer was transferred to a clean tube and evaporated to dryness at 25°C under a stream of nitrogen. The residue was reconstituted in 50 μL of the initial mobile phase and subjected to another round of centrifugation at 14,000 g for 5 min, and 5 μL of the supernatant was injected for LC–MS/MS analysis.
The analysis was performed on an AB Sciex API 5500 Q Trap mass spectrometer (Toronto, Canada), interfaced with a Waters Acquity UPLC separation module.
(§1) The pharmacokinetic parameters, including the area under the plasma concentration-time curve from time zero to time t (AUC0-t) to time infinity (AUC0-∞), the time to reach the maximum plasma concentration (T max), the elimination half-time (t 1/2), and the maximum plasma concentration (C max), were calculated using the pharmacokinetic software Phoenix® WinNonlin®, version 7.0 (Scientific Consulting Inc., Apex, NC, United States). Data are expressed as the mean ± standard deviation (SD) for each group. The dose-exposure relationship was evaluated by the power function model combined with the confidence interval method ([Smith et al., 2000]; [Sethuraman et al., 2007]; [Hummel et al., 2009]). First, the administration dose, AUC0-∞ and C max were logarithmically transformed, and then a linear regression was performed to obtain the curve correlation coefficient (R^2), slope and 90% confidence interval (90% CI).
The conditions of data set [2]: RPM extract 36 g/kg p.o., rat plasma, Mean ± SD, n = 6; ref Cheng et al., 2020; cited from earlier work.
A short description of data set [3]: Tissue distribution of RPM constituents after oral RPM extract. As to conditions: Sprague-Dawley, rat, po, 18 g/kg.
Method: For the tissue distribution study, 18 rats were randomly divided into three groups (n = 6, each) and orally administered 18 g/kg RPM extract. The rats under isoflurane anesthesia were sacrificed by bleeding from the abdominal aorta at 5, 15, and 60 min (six rats per time point) after gavage with 18 g/kg RPM extract. Subsequently, the heart, liver, spleen, lung, kidney, brain, stomach, small intestine, bladder, and gonads (testes of male rats, and uterus and ovaries of female rats) were immediately collected. An accurately weighed amount of fresh tissue sample (0.25 g) was individually homogenized with normal saline (1 ml) and transferred (50 μL) as a tissue homogenate to 1.5 ml centrifuge tubes for use as the tissue samples. All tissue samples were stored at −70°C until analysis.
Samples were prepared using the protein precipitation process. […] The tissue samples were homogenized in four parts of ice-cold 0.9% saline solution and then centrifuged at 4°C and 12,000 × g for 10 min to obtain tissue homogenates. […] Tissue homogenate, urine, bile and fecal samples were subjected to a similar process as the rat plasma samples.
For the tissue distribution study, 18 rats were randomly divided into three groups (n=6, each), and orally administered with 18 g/kg RPM extract. The rats were sacrificed at 5, 15, 60 min after orally administering RPM. Subsequently, the heart, liver, spleen, lung, kidney, brain, stomach, small intestine, bladder, gonad (testes of male rats, uterus and ovaries of female rats) were immediately collected. An accurately weighed amount of fresh tissue sample (0.25 g) was individually homogenized with normal saline (1 mL) and transferred (50 μL) as a tissue homogenate to 1.5 mL centrifuge tubes for use as the tissue samples.
The nature of data set [4]: Biliary excretion in bile duct drained rats after oral RPM extract. As to conditions: single p.o. RPM extract 18 g/kg, rat bile.
Method: (§2) For the excretion study, the rats were housed singly in metabolic cages with urine collection tubes kept at 4 °C during sample collection. Urine and fecal samples were collected at time intervals of 0–4, 4–8, 8–24, 24–32, and 32–48 h after a single dose of RPM extract at 18 g/kg and then weighed. Another six rats were anesthetized with pentobarbital, fixed in the supine position and subjected to bile duct drainage surgery, and the abdominal wound was sutured. Blank bile samples were collected before the administration of RPM. The rats were weighed, and the state of the rats was observed. Subsequently, they were orally administered 18 g/kg RPM extract. The bile samples were collected at time intervals of 0–1, 1–2, 2–4, 4–6, 6–8, 8–24, 24–32 and 32–48 h. The urine, feces, and bile samples were stored at −70°C until use.
(§3) Samples were prepared using the protein precipitation process. […] After vortex shaking for 5 min and centrifugation at 14,000 g for 5 min, 150 μL of the organic layer was transferred to a clean tube and evaporated to dryness at 25°C under a stream of nitrogen. The residue was reconstituted in 50 μL of the initial mobile phase and subjected to another round of centrifugation at 14,000 g for 5 min, and 5 μL of the supernatant was injected for LC–MS/MS analysis. […] Urine and bile samples were centrifuged at 4°C and 12,000 × g for 15 min. Fecal samples were homogenized in 0.9% saline and then centrifuged at 4°C and 12,000 × g for 15 min to gather the fecal homogenates. Tissue homogenate, urine, bile and fecal samples were subjected to a similar process as the rat plasma samples.
(§4) For the excretion study, 6 rats were placed in metabolic cage after orally administered with 18 g/kg RPM extract, and urine, feces samples were collected at time intervals of 0–4, 4–8, 8–24, 24–32, 32–48, 48–60, and 60–72 h. Another 6 rats were anesthetized with pentobarbital, fixed in the supine position and performed bile duct drainage operation, and the abdominal wound was sutured. […] Subsequently, they were orally administered with 18 g/kg RPM extract. The bile samples were collected at time intervals of 0–1, 1–2, 2–4, 4–6, 6–8, 8–24, 24–32 and 32–48 h. The urine, feces, and bile samples were stored at −70 °C until use.
A short description of data set [5]: Excretion into urine and feces and mass balance after oral RPM extract. As to conditions: for dose excreted: Sprague-Dawley, rat, po.
Method: as §2, §3, §4
Data set [6] in a line: Dose-exposure relationship (power function model with confidence interval method).
Method: as §1
Where [7] appears, read: both, bladder, AUC0-t in bladder, rat tissue: bladder, 18 g/kg RPM extract p.o., tissues collected at 5, 15, 60 min.
The mark [8] stands for this setting: both, heart, AUC0-t in heart, rat tissue: heart, 18 g/kg RPM extract p.o., tissues collected at 5, 15, 60 min.
[9] abbreviates: both, intestine, AUC0-t in intestine, rat tissue: intestine, 18 g/kg RPM extract p.o., tissues collected at 5, 15, 60 min.
[10] abbreviates: both, kidney, AUC0-t in kidney, rat tissue: kidney, 18 g/kg RPM extract p.o., tissues collected at 5, 15, 60 min.
[11] abbreviates: both, liver, AUC0-t in liver, rat tissue: liver, 18 g/kg RPM extract p.o., tissues collected at 5, 15, 60 min.
Setting [12] is: both, lung, AUC0-t in lung, rat tissue: lung, 18 g/kg RPM extract p.o., tissues collected at 5, 15, 60 min.
The mark [13] stands for this setting: both, spleen, AUC0-t in spleen, rat tissue: spleen, 18 g/kg RPM extract p.o., tissues collected at 5, 15, 60 min.
[14] abbreviates: both, stomach, AUC0-t in stomach, rat tissue: stomach, 18 g/kg RPM extract p.o., tissues collected at 5, 15, 60 min.
Where [15] appears, read: female, uterus, AUC0-t in uterus, rat tissue: uterus, 18 g/kg RPM extract p.o., tissues collected at 5, 15, 60 min.
[16] abbreviates: Sprague-Dawley, rat, plasma, po, 6 g/kg.
The mark [17] stands for this setting: Sprague-Dawley, rat, plasma, po, 18 g/kg.
[18] abbreviates: feces, Recovery in feces (%), mass balance, 18 g/kg RPM extract p.o., feces collected 0–72 h.
[19] abbreviates: urine, Recovery in urine (%), mass balance, 18 g/kg RPM extract p.o., urine collected 0–72 h.
Where [20] appears, read: single p.o. RPM extract 18 g/kg, rat feces.
[21] abbreviates: single p.o. RPM extract 18 g/kg, rat urine.
Where [22] appears, read: AUC0-∞ vs p.o. dose of RPM extract, critical interval 0.88–1.12.
The mark [23] stands for this setting: C max vs p.o. dose of RPM extract, critical interval 0.80–1.20.
Setting [24] is: log AUC0-∞ vs log p.o. dose of RPM extract, critical interval 0.88–1.12.
Where [25] appears, read: log C max vs log p.o. dose of RPM extract, critical interval 0.80–1.20.

Broadly, the AUC(0-t) is exposure summed from dosing to a finite time, without extrapolation to infinity. For orientation: Cmax means the peak of the concentration-time curve. Broadly, the AUC(0-inf) is the area under the concentration-time curve extrapolated to infinity. A word on the MRT inf: it is the average time that molecules of a dose stay in the body. A word on the Tmax: it is the time from dosing to the highest level. By half-life is commonly meant the time needed for the level to fall by half in the phase considered. A higher half-life goes with slow decline.

Like-named read-outs stand apart in the source and are kept apart here. Bounds are passed on as bounds.

Regarding `COc1cc(O)cc2c1C(=O)c1c(O)cc(C)cc1C2=O` [questin], the plasma concentrations entry in data set [1] (rat plasma) is “too low to be detected”.

Turning to `COc1cc(O[C@@H]2O[C@H](CO)[C@@H](O)[C@H](O)[C@H]2O)c2c(c1)C(=O)c1cc(C)cc(O)c1C2=O` [PG, physcion-8-O-β-D-glucoside], the “AUC0-∞” value in data set [2] is 188 ± 18.6 nmol·h/L. The AUC(0-t) in data set [2] was 178 ± 20.1 nmol·h/L; in data set [3] (setting [7]), 0.205 µM·h; in data set [3] (both, brain, AUC0-t in brain, rat tissue: brain, 18 g/kg RPM extract p.o., tissues collected at 5, 15, 60 min), 0.125 µM·h; in data set [3] (setting [8]), 1.64 µM·h; in data set [3] (setting [9]) it was 0.692 µM·h; in data set [3] (setting [10]), 3.21 µM·h. Besides, the AUC(0-t) was found to be 3.38 µM·h in data set [3] (setting [11]); 0.842 µM·h in data set [3] (setting [12]); 2.69 µM·h in data set [3] (setting [13]); 1.29 µM·h in data set [3] (setting [14]); 0.614 µM·h in data set [3] (female, ovary, AUC0-t in ovary, rat tissue: ovary, 18 g/kg RPM extract p.o., tissues collected at 5, 15, 60 min); 0.735 µM·h in data set [3] (setting [15]). Besides, the AUC(0-t) in data set [3] (male, testis, AUC0-t in testis, rat tissue: testis, 18 g/kg RPM extract p.o., tissues collected at 5, 15, 60 min) came out at 0.0806 µM·h; in data set [1] (setting [16]), 0.0777 ± 0.00612 µM·h; in data set [1] (setting [17]), 0.176 ± 0.0168 µM·h. The Cmax in data set [2] is 42.1 ± 10.9 nM; in data set [1] (setting [16]), 16.8 ± 4.1 nM; in data set [1] (setting [17]), 34.2 ± 4.59 nM. Moreover, the “MRT0-∞” value in data set [2] is 8.58 ± 1.72 h. In data set [2], the “t 1/2” value is on record as 6.13 ± 1.06 h. Further, in data set [1] (rat plasma), the “time at which C max was exhibited” value was not above 20 min. For the same compound, the AUC(0-inf) in data set [1] (setting [16]) came to 0.0919 ± 0.0145 µM·h; in data set [1] (setting [17]) it was 0.192 ± 0.0126 µM·h. Further, the MRT inf was found to be 7.55 ± 1.48 h in data set [1] (setting [16]) and 9.64 ± 2.05 h in data set [1] (setting [17]). Also, the Tmax in data set [1] (setting [16]) turned out to be 17.4 ± 6 min; in data set [1] (setting [17]) it was 15.6 ± 7.8 min. The half-life in data set [1] (setting [16]) was 290 ± 59.4 min; in data set [1] (setting [17]), 425 ± 127 min. The “cumulative excretion into bile” value in data set [4] stood at 18.2 ± 3.29 nmol. For the same compound, the dose excreted in data set [5] (setting [18]) was 11.6%; in data set [5] (urine and feces, recovery from the urine and feces, single p.o. RPM extract 18 g/kg, rats), 16.4%; in data set [5] (setting [19]), 4.83%. Moreover, the “cumulative excretion into feces” value in data set [5] (setting [20]) stood at 13.6 ± 1.12 nmol. Further, the “cumulative excretion into urine” value in data set [5] (setting [21]) turned out to be 5.53 ± 2.08 nmol. Besides, the “Conclusion (dose-exposure relationship)” value in data set [6] (setting [22]) and in data set [6] (setting [23]) was “Nonlinear correlation” each time. Also, the “Slope (90%CI)” value is 0.429 (0.326–0.532) in data set [6] (setting [24]) and 0.524 (0.396–0.652) in data set [6] (setting [25]).

Consider `O=C(O)c1cc(O)c2c(c1)C(=O)c1cccc(O)c1C2=O` [Rhein, rhein], for which, in data set [2], the “AUC0-∞” value is 8.14 ± 1.78 nmol·h/L, the AUC(0-t) is recorded as 3.91 ± 2.23 nmol·h/L and the Cmax was 3.74 ± 0.84 nM. In data set [1] (RPM extract 18 g/kg p.o., rat plasma, Mean ± SD, n = 6), this compound showed a Cmax of 3.72 ± 1.25 nM. In addition, in data set [1] (setting [17]), the AUC(0-t) was found to be 0.00426 ± 0.00299 µM·h and the Tmax was found to be 25.2 ± 8.4 min. The plasma concentration result in data set [1] (rats dosed with 6 g/kg RPM, plasma) was “could not be detected”. The “cumulative excretion into bile” value in data set [4] turned out to be 45.0 ± 8.41 nmol. Also, the detection in feces entry in data set [5] (setting [20]) is reported as “not detected”. In addition, the detection in urine entry in data set [5] (setting [21]) is given as “not detected”. The “Conclusion (dose-exposure relationship)” value in data set [6] (setting [23]) is “Nonlinear correlation”. In data set [6] (setting [25]), the “Slope (90%CI)” value is 0.034 (-0.482–0.550).

As to `Cc1cc(O)c2c(c1)C(=O)c1cccc(O[C@@H]3O[C@H](CO)[C@@H](O)[C@H](O)[C@H]3O)c1C2=O` [CG, chrysophanol-8-O-β-D-glucoside], in data set [1] (rat plasma), the plasma concentrations entry is on record as “too low to be detected”.

In the case of `O=C1c2cccc(O)c2C(=O)c2c(O)cc(CO)cc21` [Aloe-emodin, aloe-emodin], in data set [2], the “AUC0-∞” value is recorded as 31.3 ± 12.7 nmol·h/L. Also, the AUC(0-t) was 27.0 ± 12.0 nmol·h/L in data set [2]; 0.00106 µM·h in data set [3] (both, brain); 0.0169 µM·h in data set [3] (both, heart); 0.00733 µM·h in data set [3] (both, intestine); 0.00977 µM·h in data set [3] (both, kidney); 0.0555 µM·h in data set [3] (both, liver). The AUC(0-t) in data set [3] (both, lung) was found to be 0.0313 µM·h; in data set [3] (both, spleen) it was 0.0525 µM·h; in data set [3] (both, stomach) it was 0.0238 µM·h; in data set [3] (female, ovary), 0.00666 µM·h; in data set [1] (setting [16]), 0.00832 ± 0.00416 µM·h; in data set [1] (setting [17]), 0.0254 ± 0.0097 µM·h. Further, the Cmax in data set [2] is 42 ± 11.5 nM; in data set [1] (setting [16]) it was 8.25 ± 7.47 nM; in data set [1] (setting [17]), 31.7 ± 3.03 nM. Besides, the “time at which C max was exhibited” value in data set [1] (rat plasma) was not above 20 min. Besides, the AUC(0-inf) in data set [1] (setting [16]) stood at 0.0124 ± 0.007 µM·h; in data set [1] (setting [17]), 0.0324 ± 0.0144 µM·h. In addition, the values for the MRT inf in data set [1] (setting [16]) and in data set [1] (setting [17]) were 9.61 ± 8.77 h and 4.65 ± 3.53 h, respectively. Further, the Tmax in data set [1] (setting [16]) turned out to be 17.4 ± 6 min. Besides, the half-life in data set [1] (setting [16]) was 508 ± 428 min; in data set [1] (setting [17]), 305 ± 203 min. The “cumulative excretion into bile” value in data set [4] is listed as 61.1 ± 8.66 nmol. In addition, the dose excreted in data set [5] (setting [18]) came to 21.7%; in data set [5] (urine and feces, Recovery in urine and feces (%), mass balance, 18 g/kg RPM extract p.o., urine plus feces, 0–72 h) it was 31.4%; in data set [5] (setting [19]), 9.69%. Further, the “cumulative excretion into feces” value in data set [5] (setting [20]) amounted to 43.7 ± 6.18 nmol. For the same compound, the “cumulative excretion into urine” value in data set [5] (setting [21]) came to 19.3 ± 5.44 nmol. For the same compound, the “Conclusion (dose-exposure relationship)” value in data set [6] (setting [22]) and in data set [6] (setting [23]) was “Uncertainty of linear relationship” in each case. Further, the “Slope (90%CI)” value in data set [6] (setting [24]) is 0.582 (0.278–0.885); in data set [6] (setting [25]) it was 1.07 (0.795–1.35).

With `Cc1cc(O)c2c(c1)C(=O)c1cccc(O)c1C2=O` [Chrysophanol], the “AUC0-∞” value in data set [2] is reported as 40.4 ± 7.36 nmol·h/L. Further, the AUC(0-t) was 16.9 ± 6.47 nmol·h/L in data set [2]; 0.0376 µM·h in data set [3] (setting [7]); 0.0311 µM·h in data set [3] (setting [8]); 0.0277 µM·h in data set [3] (setting [9]); 0.0132 µM·h in data set [3] (setting [10]); 0.0273 µM·h in data set [3] (setting [11]). Besides, the AUC(0-t) in data set [3] (setting [12]) was determined as 0.0476 µM·h; in data set [3] (setting [13]) it was 0.0503 µM·h; in data set [3] (both, spleen, AUC0-t in the spleen, RPM extract 18 g/kg p.o., rat spleen, sampling 5, 15, 60 min), 0.0503 µM·h; in data set [3] (setting [14]), 0.0345 µM·h; in data set [3] (setting [15]) it was 0.029 µM·h; in data set [1] (setting [16]) it was 0.0748 ± 0.0589 µM·h. In addition, the AUC(0-t) in data set [1] (setting [17]) amounted to 0.0198 ± 0.00941 µM·h. Besides, the Cmax in data set [2] was 7.48 ± 2.21 nM; in data set [1] (setting [16]), 9.36 ± 3.26 nM; in data set [1] (setting [17]) it was 7.87 ± 2.19 nM. The same compound registered an AUC(0-inf) in data set [1] (setting [16]) of 0.34 ± 0.195 µM·h. The compound also came in with an MRT inf in data set [1] (setting [16]) of 40.3 ± 23.3 h. Moreover, the Tmax in data set [1] (setting [16]) was found to be 61.8 ± 57.6 min; in data set [1] (setting [17]), 211 ± 184 min. The half-life in data set [1] (setting [16]) is 1580 ± 864 min. Further, the “Conclusion (dose-exposure relationship)” value in data set [6] (setting [22]) and in data set [6] (setting [23]) was “Nonlinear correlation” each time. Moreover, the “Slope (90%CI)” value in data set [6] (setting [24]) is listed as “–0.667 (–1.14 to –0.193)”; in data set [6] (setting [25]), “–0.158 (-0.337–0.021)”.

Values taken from paper PMC8899820, “Pharmacokinetics, Tissue Distribution, and Excretion Characteristics of a Radix Polygoni Multiflori Extract in Rats” (Frontiers in Pharmacology, 2022).
